For 5 compounds, IC50 results are on record in patent publication US8669274B2, “Metalloenzyme inhibitor compounds” (Viamet Pharmaceuticals, Inc., priority 2010, dated 2014).

SMILES strings stand for the structures.

One assay deals with CYP2C19 (Homo sapiens, UniProt P33261). Briefly: Inhibition of liver cytochrome P450 enzymes (pooled human liver microsomes), CYP2C19.
In another assay the target is T1, CYP17 (Rattus norvegicus, UniProt P11715).
T1 construct: from tissue; host or cells: pooled rat testicular microsomes
T1 sequence (P11715 1-507): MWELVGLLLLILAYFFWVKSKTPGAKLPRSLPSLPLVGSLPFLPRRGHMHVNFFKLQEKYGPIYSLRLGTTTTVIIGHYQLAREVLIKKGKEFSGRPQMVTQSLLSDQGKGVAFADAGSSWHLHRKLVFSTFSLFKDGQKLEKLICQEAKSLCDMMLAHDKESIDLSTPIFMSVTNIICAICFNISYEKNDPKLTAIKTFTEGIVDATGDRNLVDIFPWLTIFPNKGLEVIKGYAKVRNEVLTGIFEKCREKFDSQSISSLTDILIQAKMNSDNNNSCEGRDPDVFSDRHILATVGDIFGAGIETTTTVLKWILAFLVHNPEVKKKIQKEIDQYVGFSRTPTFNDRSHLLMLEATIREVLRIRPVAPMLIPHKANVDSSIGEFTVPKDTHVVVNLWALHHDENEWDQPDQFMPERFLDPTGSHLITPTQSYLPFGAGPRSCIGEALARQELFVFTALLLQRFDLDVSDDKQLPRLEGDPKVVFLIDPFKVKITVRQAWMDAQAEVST
Briefly: Inhibition of CYP17 (pooled rat testicular microsomes). The assay is classed as biochemical. Here is the method: CYP17 activity was assayed according to the following procedure. […] The individual test compound and isozyme inhibitor solutions were then diluted 20-fold with deionized water (50:950 v/v) to concentrations of 135, 27, 4.5, 0.9, 0.15, 0.03 and 0.005 μM. The percent of organic solvent attributable to the test compound or inhibitor mixture in the final reaction mixture is 1%. Pooled rat testicular microsome suspension (20 mg/mL) was diluted with phosphate buffer to obtain a 1.25 mg/mL suspension. A solution of NADPH was prepared in phosphate buffer at a concentration of 2.5×. A stock solution of the substrate was prepared in DMSO:MeCN (50:50 v/v), mixed, and diluted in phosphate buffer to obtain a single solution containing the substrate at 5 μM. The percent of organic solvent attributable to substrate mixture in the final reaction mixture is 1%. Substrate solution and microsome suspension were combined in a 1:1 volume ratio, mixed, and distributed to reaction wells of a PCR plate. Individual test compound or the inhibitor solution at each concentration was added to the wells and mixed by repetitive aspirate/dispense cycles. For active controls, blank test compound diluent was added in place of test compound solution. Reaction mixtures were allowed to equilibrate at 37° C. for approximately two minutes before adding NADPH solution to initiate reaction, followed by pipette mixing of reaction mixture.

In the next assay the target is CYP3A4 (Homo sapiens, UniProt P08684). The experiment in a line: Inhibition of liver cytochrome P450 enzymes (pooled human liver microsomes), CYP3A4.
Chain of CYP3A4 (P08684 whole entry): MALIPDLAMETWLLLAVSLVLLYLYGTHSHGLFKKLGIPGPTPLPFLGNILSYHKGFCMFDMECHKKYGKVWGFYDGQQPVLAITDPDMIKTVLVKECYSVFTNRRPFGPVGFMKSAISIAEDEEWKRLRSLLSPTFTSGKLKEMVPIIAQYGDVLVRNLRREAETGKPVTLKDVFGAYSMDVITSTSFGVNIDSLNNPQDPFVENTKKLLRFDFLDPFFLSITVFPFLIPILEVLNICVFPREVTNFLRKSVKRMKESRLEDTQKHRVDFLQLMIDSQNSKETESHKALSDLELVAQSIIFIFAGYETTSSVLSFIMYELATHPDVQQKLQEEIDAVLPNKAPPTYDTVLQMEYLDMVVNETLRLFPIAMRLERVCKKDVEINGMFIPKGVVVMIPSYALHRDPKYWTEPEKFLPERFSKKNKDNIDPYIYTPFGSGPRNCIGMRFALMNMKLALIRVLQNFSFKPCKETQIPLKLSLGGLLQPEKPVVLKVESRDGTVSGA
A further assay has as its target CYP2C9 (Homo sapiens, UniProt P11712). Briefly: Inhibition of liver cytochrome P450 enzymes (pooled human liver microsomes), CYP2C9.

Chain of CYP2C19 (P33261 whole entry): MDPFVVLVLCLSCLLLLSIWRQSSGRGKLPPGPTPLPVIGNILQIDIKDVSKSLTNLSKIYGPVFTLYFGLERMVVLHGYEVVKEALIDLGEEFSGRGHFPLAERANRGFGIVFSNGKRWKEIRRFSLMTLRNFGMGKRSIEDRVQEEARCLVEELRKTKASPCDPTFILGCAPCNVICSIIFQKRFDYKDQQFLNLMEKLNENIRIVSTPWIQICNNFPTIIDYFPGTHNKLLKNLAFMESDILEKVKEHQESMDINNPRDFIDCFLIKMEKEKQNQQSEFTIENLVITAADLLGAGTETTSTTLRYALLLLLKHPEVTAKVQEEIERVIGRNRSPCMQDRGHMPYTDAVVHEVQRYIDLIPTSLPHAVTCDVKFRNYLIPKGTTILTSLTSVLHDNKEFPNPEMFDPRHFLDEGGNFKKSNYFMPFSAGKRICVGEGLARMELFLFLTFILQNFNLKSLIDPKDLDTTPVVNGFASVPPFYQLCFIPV
Chain of CYP2C9 (P11712 whole entry): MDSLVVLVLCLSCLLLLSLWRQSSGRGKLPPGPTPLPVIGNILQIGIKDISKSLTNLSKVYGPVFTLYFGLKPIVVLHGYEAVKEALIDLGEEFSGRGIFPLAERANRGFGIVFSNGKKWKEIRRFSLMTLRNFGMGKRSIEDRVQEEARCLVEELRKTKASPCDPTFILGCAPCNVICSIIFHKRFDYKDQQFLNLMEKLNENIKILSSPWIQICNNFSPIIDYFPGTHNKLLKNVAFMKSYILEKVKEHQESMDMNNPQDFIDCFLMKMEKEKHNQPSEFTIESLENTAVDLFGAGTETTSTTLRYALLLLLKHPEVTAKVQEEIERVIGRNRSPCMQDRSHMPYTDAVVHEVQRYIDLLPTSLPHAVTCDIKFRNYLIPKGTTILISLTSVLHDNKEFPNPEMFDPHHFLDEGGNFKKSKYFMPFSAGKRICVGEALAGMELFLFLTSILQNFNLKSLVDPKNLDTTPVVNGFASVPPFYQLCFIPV

As to `COc1cc2ccc(C(C(C)C)n3ccnn3)cc2cc1OC` (centres unmarked) [Example 1, 1-(1-(6,7-dimethoxynaphthalen-2-yl)-2-methylpropyl)-1H-1,2,3-triazole], the IC50 was 8.4 µM at CYP2C19, 0.05 µM on CYP17, 11 µM against CYP3A4 and 6.5 µM on CYP2C9.
Consider `CC(C)C(c1ccc2cc(OCC(F)(F)F)c(OCC(F)(F)F)cc2c1)n1ccnn1` (centres unmarked) [Example 2, 1-(1-(6,7-bis(2,2,2-trifluoroethoxy)naphthalen-2-yl)-2-methylpropyl)-1H-1,2,3-triazole], for which the IC50 on CYP2C19 was 4.4 µM; at CYP17, 0.48 µM; against CYP3A4, above 60 µM; against CYP2C9, 2.9 µM.
For `CC(C)C(c1ccc2cc(OCC(F)(F)F)ccc2n1)n1ccnn1` (centres unmarked) [Example 3, 2-(2-Methyl-1-(1H-1,2,3-triazol-1-yl)propyl)-6-(2,2,2-trifluoroethoxy)quinoline], in that order: 5 µM, 0.03 µM, 19 µM and 3.2 µM.
Taken in the same sequence, the figures for `CC(C)C(c1ccc2cc(-c3ccc(F)cc3)ccc2n1)n1ccnn1` (centres unmarked) [Example 4, 6-(4-Fluorophenyl)-2-(2-methyl-1-(1H-1,2,3-triazol-1-yl)propyl)quinoline] were 31 µM, 0.042 µM, 84 µM and 24 µM.
In the case of `CC(=O)N1CCN(c2ccc(OCC3COC(Cn4ccnc4)(c4ccc(Cl)cc4Cl)O3)cc2)CC1` (centres unmarked) [Ketoconazole, ketoconazole, reference compound], the IC50 at CYP17 came to 0.4 µM.
